This note sets out measurements from ChEMBL document CHEMBL1759905, “Nonsteroidal 2,3-dihydroquinoline glucocorticoid receptor agonists with reduced PEPCK activation” (Bioorg Med Chem Lett, 2011).

The target of experiment [1] is T1, Glucocorticoid receptor (Homo sapiens, UniProt P04150).
T1 sequence (P04150 whole entry): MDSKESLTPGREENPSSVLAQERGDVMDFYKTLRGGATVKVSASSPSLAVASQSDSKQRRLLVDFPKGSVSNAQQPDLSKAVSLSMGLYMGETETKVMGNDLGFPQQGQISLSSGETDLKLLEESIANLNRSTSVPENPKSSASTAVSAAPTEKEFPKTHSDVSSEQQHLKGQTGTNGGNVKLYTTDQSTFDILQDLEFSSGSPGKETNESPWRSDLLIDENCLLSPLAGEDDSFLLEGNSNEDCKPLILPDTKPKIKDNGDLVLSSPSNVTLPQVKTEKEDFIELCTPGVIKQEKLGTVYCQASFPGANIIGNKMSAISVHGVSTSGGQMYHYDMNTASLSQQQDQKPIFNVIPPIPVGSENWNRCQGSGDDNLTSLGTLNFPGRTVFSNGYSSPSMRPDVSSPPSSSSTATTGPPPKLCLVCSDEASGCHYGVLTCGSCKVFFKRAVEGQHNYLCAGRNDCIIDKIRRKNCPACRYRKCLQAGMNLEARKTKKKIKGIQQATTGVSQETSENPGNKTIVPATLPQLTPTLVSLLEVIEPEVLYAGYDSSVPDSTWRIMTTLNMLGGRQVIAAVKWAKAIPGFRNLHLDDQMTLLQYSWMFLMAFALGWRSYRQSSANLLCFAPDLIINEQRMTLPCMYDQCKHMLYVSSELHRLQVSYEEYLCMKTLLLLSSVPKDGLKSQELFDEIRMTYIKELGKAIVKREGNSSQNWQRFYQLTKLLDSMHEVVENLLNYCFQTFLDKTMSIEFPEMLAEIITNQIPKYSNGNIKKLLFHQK
In words: Transrepression activity at glucocorticoid receptor in human NHDF cells assessed as inhibition of IL-1beta-stimulated AP1 dependent IL-6 repression by ELISA. The format is cell-based.

Experiment [2] concerns the target T1, Glucocorticoid receptor. In words: Agonist activity at glucocorticoid receptor in human HepG2 cells co-transfected with PEPCK assessed as GRE activation by luciferase reporter gene assay. The format is functional, cell-based. (A reporter such as luciferase makes a cellular process visible.)
The target of experiment [3] is T2, Glucocorticoid receptor (Homo sapiens) (UniProt P04150).
T2 sequence (whole entry): T1 sequence (P04150 whole entry)
In words: Transrepression activity at glucocorticoid receptor in human NHDF cells assessed as inhibition of IL-1beta-stimulated AP1 dependent IL-6 repression by ELISA relative to Dexamethasone. The class given is cell-based. Also on record: concentration or dose not given beside the values. For orientation: In an ELISA, binding on a coated surface is turned into a signal by an enzyme label.

The target in experiment [4] is T1, Glucocorticoid receptor. In words: Agonist activity at glucocorticoid receptor in human HepG2 cells co-transfected with GRE assessed as GRE activation by luciferase reporter gene assay. The format is functional, cell-based.
Experiment [5] addresses T3, Mineralocorticoid receptor (Homo sapiens, UniProt P08235).
T3 sequence (P08235 whole entry): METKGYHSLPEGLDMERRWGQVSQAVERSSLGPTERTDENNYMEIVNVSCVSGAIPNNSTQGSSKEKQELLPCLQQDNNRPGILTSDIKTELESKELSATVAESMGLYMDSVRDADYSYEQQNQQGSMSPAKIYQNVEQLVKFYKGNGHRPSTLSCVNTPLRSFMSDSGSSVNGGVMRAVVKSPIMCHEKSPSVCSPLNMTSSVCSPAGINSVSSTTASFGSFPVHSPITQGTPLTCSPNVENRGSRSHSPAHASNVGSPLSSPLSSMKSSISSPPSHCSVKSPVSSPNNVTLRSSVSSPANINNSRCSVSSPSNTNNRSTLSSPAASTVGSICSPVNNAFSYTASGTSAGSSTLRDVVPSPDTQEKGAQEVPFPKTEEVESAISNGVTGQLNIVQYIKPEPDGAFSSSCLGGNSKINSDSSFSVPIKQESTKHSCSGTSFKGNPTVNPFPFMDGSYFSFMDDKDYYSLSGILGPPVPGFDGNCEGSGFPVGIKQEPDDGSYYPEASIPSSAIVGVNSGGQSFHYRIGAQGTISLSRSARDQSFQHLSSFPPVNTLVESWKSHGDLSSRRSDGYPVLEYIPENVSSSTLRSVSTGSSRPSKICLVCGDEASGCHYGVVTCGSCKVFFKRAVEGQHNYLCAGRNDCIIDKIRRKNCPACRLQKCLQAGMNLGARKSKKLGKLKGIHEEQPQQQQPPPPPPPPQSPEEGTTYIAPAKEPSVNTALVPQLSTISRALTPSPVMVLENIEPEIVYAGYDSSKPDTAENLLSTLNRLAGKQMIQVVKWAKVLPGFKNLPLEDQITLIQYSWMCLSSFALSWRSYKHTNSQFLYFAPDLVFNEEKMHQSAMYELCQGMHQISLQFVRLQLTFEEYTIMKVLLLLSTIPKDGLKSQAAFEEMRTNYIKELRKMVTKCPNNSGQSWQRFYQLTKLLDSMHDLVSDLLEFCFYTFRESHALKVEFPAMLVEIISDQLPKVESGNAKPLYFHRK
Kind of experiment: Binding affinity to mineralocorticoid receptor.

In the case of `Cc1c[nH]c2c(-c3c(F)cc4c(c3F)/C(=N/OC(C)C)CC(C)(C)N4)cccc12`, at Glucocorticoid receptor [1], the IC50 stood at 11 nM. In addition, the figures for the EC50 at Glucocorticoid receptor [2] and on Glucocorticoid receptor [4] were 250 nM and 0.6 nM, respectively. Further, the Activity in experiment [3] was determined as 77%. The inhibition constant (Ki) in experiment [5] amounted to 2800 nM.

For `CC1(C)C/C(=N\OC(C)(C)C)c2c(cc(F)c(-c3cccc4c(Cl)c[nH]c34)c2F)N1`, the IC50 on Glucocorticoid receptor [1] is 19 nM. In addition, the concentration giving a half-maximal response (EC50) worked out at 67 nM on Glucocorticoid receptor [2] and 3.4 nM at Glucocorticoid receptor [4]. Also, the Activity in experiment [3] is 83%. This compound gave an inhibitory constant (Ki) in experiment [5] of 1040 nM.

As to `CO/N=C1/c2c(cc(F)c(-c3cccc4c(C)c[nH]c34)c2F)NC(C)(C)C1O` (racemic), the half-maximal inhibitory concentration (IC50) at Glucocorticoid receptor [1] came out at 17 nM. Moreover, the concentration giving a half-maximal response (EC50) on Glucocorticoid receptor [2] worked out at 560 nM; on Glucocorticoid receptor [4] it was 3.9 nM. Besides, the Activity in experiment [3] was 98%. This compound had a Ki in experiment [5] of 1700 nM.

For `Cc1c[nH]c2c(-c3c(F)cc4c(c3F)/C(=N/OC(C)(C)C)CC(C)(C)N4)cccc12`, the concentration for half-maximal inhibition (IC50) on Glucocorticoid receptor [1] turned out to be 13 nM. Also, the EC50 amounted to 70 nM on Glucocorticoid receptor [2] and 5 nM at Glucocorticoid receptor [4]. The Activity in experiment [3] was determined as 73%. Moreover, in experiment [5], the Ki stood at 1600 nM.

As for `Cc1c[nH]c2c(-c3c(F)cc4c(c3F)/C(=N/OC(C)(C)CO)CC(C)(C)N4)cccc12`, on Glucocorticoid receptor [1], the IC50 turned out to be 65 nM. In addition, the results for the EC50 on Glucocorticoid receptor [2] and on Glucocorticoid receptor [4] were 350 nM and 19 nM, respectively. In experiment [3], the Activity is 67%. In addition, the inhibition constant Ki in experiment [5] is 2700 nM.

The IC50 is the point on the concentration scale where inhibition reaches its midpoint. For orientation: EC50 means the concentration giving half of the maximal effect. What is called Ki is the dissociation constant of the complex between target and ligand, obtained from inhibition or displacement.
